Columns and labels:
[1] = test system: Env140-based LNA-regulatable ribozyme (cell lines S69 and S70); test: LNA-activation assay and flow cytometry of GFP expression; design: species or system CHO; details: stable cell lines with inducible/switchable construct and inactive construct; FACS
Procedure: S69 and S70, were seeded at 50,000 cells/well into a flat-bottom round wells 96-well microplate, in 200 μL media, and incubated in standard static cell culture condition with or without 12.5 μM LNA oligonucleotide added from three to seven days, after which a 70 μL aliquot was removed and analyzed by flow cytometry. Flow cytometry was performed on a 4-6 color BD FACSCanto™ or FACS Celesta™ System using the FITC channel for the evaluation of GFP expression, and APC channel for iRFP expression. The population of cells was gated to avoid cell doublets detected by the forward and side scattering.

[2] = test system: K4/K19 tetracycline-responsive ribozyme-switch; test: K4/K19 tetracycline-responsive ribozyme-switch controlling GFP expression in stably transfected cells (FACS); assay type: cell-based, CHO; details: 50 μM tetracycline concentration; GFP readout
Procedure: The method according to the current invention is exemplified first in the following using the K4/K19 tetracycline-responsive ribozyme-switch generated by Beilstein et al. (ACS Synth. Biol., […] (2015) 526-534). This is presented solely as an illustration of the method according to the invention and shall not be construed as limitation thereof. The true scope is set forth in the appended claims.
Whilst the output measurement was different (Luciferase vs GFP) a 1.9× fold-increase at 50 μM tetracycline concentration was achieved (FIG. 4 and FIG. 5).
For testing and screening RNA-switches that control the mRNA degradation of a GFP reporter were cloned into the front plasmid, whereas the red-shifted iRFP gene was cloned into the back plasmid and was used for fluorescence normalization purposes. Expressed genes were placed under the control of a strong promoter (SV40). The RNA-switches constructs were cloned downstream of the GFP gene and before the bovine growth hormone polyadenylation (bGH-polyA) signal sequence. For each construct, both the complementary and anti-complementary strands were ordered as 5′-phosphorylated ssDNA oligonucleotides at Microsynth AG (Belgach, Switzerland) and were annealed by snap cooling at 0.166 μM concentration. […]

| Molecule | shift of GFP fluorescence upon application of the LNA [1] | fold-increase (GFP output) [2] [fold] |
| --- | --- | --- |
| ATTGTGCCTGAGGGTAGT (all phosphorothioate, sugars by position and methylation of C not given here; some nucleotides are LNA) | fluorescence is shifted |  |
| CN(C)[C@@H]1C(O)=C(C(N)=O)C(=O)[C@@]2(O)C(O)=C3C(=O)c4c(O)cccc4[C@@](C)(O)[C@H]3C[C@@H]12 [tetracycline] |  | 1.9 |

— US20240425855A1, “NUCLEIC ACID-[…] RNAS FOR TRIGGER-[…]” (Hoffmann-La Roche Inc., priority 2021, published 2024)
